Measurements published in paper PMC10760875, “Synthesis of alnustone-like diarylpentanoids via a 4 + 1 strategy and assessment of their potential anticancer activity” (Turkish Journal of Chemistry, 2023).
Like-named read-outs stand apart in the source and are kept apart here. Each block holds one molecule with its values, some of them ahead of it.

What was measured:
[1] = test system: U87-MG cells (human glioblastoma); assay: MTT cytotoxicity assay, U87-MG; assay type: cell-based; details: for IC50: Homo sapiens, U-87 MG, MTT, 48 h, read-out: IC50 against U87-MG; for SI, U87-MG cells: SI = IC50 normal cells (HPAEpiC)/IC50 U87-MG
Protocol: (§1) GBM (U87-MG), breast cancer (MCF-7), prostate carcinoma (PC-3), and lung epithelium (HPAEpiC) cell lines were used to assess the cytotoxic action potential of compounds 5a–5l. The cells were grown in a single layer in flasks in appropriate medium containing 10% fetal bovine serum (FBS), 1% penicillin/streptomycin, and 1% L-glutamine at 37 °C and 5% CO2 to maintain the pH balance. Cells that had reached 70%–80% confluence were used in the experiments.
(§2) The 3-(4,5-dimethylthiazol-2-yl)-2,5-diphenyltetrazolium bromide (MTT) method is a widely used colorimetric method for the quantitative determination of cell viability. It is based on the reduction of the tetrazolium ring of the yellow dye MTT by living cells. As a result of the reduction, the tetrazolium ring breaks down to form a dark blue-violet formazan compound. Cell viability is then determined spectrophotometrically. The viability of untreated cells is assumed to be 100% and the viability of treated cells is determined as a percentage (%) according to those cells.
(§3) To each 96-well plate, 2 × 10^4 cells were seeded and treated with 6 different concentrations (3.125, 6.25, 12.5, 25, 50, and 100 mg/L) of the 12 tested compounds, and then the plates were incubated in a CO2 oven at 37 °C for 48 h. At the end of the incubation, 10 μL of the MTT mixture was added to each well using a pipette, which was then gently mixed for 1 min on a circular mixer. The cells were incubated in a CO2 oven at 37 °C for 3–4 h. The formazan that formed as a result of the incubation was seen as dark crystals at the bottoms of the wells. The culture medium was carefully aspirated from each well without dispersing the cell layer, and then 100 μL of dimethyl sulfoxide (DMSO) was added to each well and gently stirred on an orbital stirrer to dissolve the formazan crystals. Each sample was read at a wavelength of 570 nm in a spectrophotometer and absorbance values were obtained. A wavelength of 630 nm was used as the reference wavelength.
(§4) Percent viability and cytotoxicity values for each dose administered were calculated according to the following formulas:
(§5) • % Viability = (absorbance of the sample/absorbance of the control) × 100 • % Cytotoxicity = [1 – (absorbance of the sample/absorbance of the control)] × 100
(§6) The IC50 dose, as the concentration of inhibitor that caused a 50% decrease in cell viability, was calculated using Excel regression analysis.
(§7) Human GBM (U87-MG), breast cancer (MCF-7), prostate cancer (PC-3), and pulmonary alveolar epithelial cells (HPAEpiC) cell lines from the American Type Culture Collection (ATCC) were used for the cytotoxicity testing of compounds 5a–5l. The cells were grown as a single layer in appropriate medium containing 10% FBS, 1% penicillin/streptomycin, and 1% L-glutamine at 37 °C and 5% CO2 atmosphere.
(§8) The cytotoxicity analyses of all of the compounds were investigated by determining cell viability based on the colorimetric MTT assay, which was conducted according to the manufacturer’s guide. First, […] were seeded in a 96-well plate and then incubated at 37 °C in a 5% CO2 environment for 24 h. The medium was aspirated the following day, and […] of each concentration of the 12 tested compounds (3.125, 6.25, 12.5, 25, 50, and 100 mg/L) were separately added to each well. The plates were then incubated for 48 h at 37 °C with 5% CO2. Next, 10 μL of MTT solution was added to each well and the plate was incubated for 4 h. The culture medium was aspirated from the wells without dispersing the cell layer and then 100 μL of DMSO was added to each well and stirred on an orbital stirrer to dissolve the formazan crystals. Each sample was read at a wavelength of 570 nm in a spectrophotometer and absorbance values were obtained. A wavelength of 630 nm was used as the reference. Cell viability was expressed as a percentage compared to the untreated cells. All experiments were performed in triplicate.

[2] = test system: PC-3 cells (prostate cancer); assay: MTT cytotoxicity assay, PC-3; assay type: cell-based, human; details: for SI, PC-3 cells: SI = IC50 normal cells (HPAEpiC)/IC50 PC-3; for IC50: MTT, 48 h, read-out: IC50 against PC-3
Protocol: as §1, §2, §3, §4, §5, §6, §7, §8

[3] = test system: MCF-7 cells (breast cancer); assay: MTT cytotoxicity assay, MCF-7; assay type: cell-based, human; details: for SI, MCF-7 cells: SI = IC50 normal cells (HPAEpiC)/IC50 MCF-7; for IC50: MTT, 48 h, read-out: IC50 against MCF-7
Protocol: as §1, §2, §3, §4, §5, §6, §7, §8

U87-MG cells = assay: Hoechst 33258 nuclear staining, U87-MG; assay type: cell-based, human; details: IC50 concentration, 48 h
Protocol: (§9) Cell morphological characteristics were examined via the fluorescent Hoechst 33258 staining approach. […] The nuclei in the untreated group were stained a less brilliant blue and the color was uniform. After 48 h of treatment at the IC50 concentrations of compounds 5a and 5i, the blue emission light in the apoptotic cells was considerably brighter than in the control cells. Many compound-treated cells also had condensed chromatin, and some had the shape of apoptotic bodies, which is one of the basic features of apoptotic cells (Figures 5 and 6). In line with these findings, it was previously reported that the diarylpentanoid BP-M345 exerted potential as an anticancer drug, showing its antiproliferative activity by preventing mitosis through microtubule disruption and inducing cancer cell death. Likewise, diarylpentanoid derivatives have led to intrinsic apoptosis in cancer cells by upregulating proapoptotic proteins such as Bad and Bax and downregulating prosurvival proteins such as Bcl-2 and Bcl-xL [33]. […]
(§10) Hoechst 33258 staining was used to assess significant morphological changes in the nuclear chromatin of the cells. […] Thereafter, the cells were observed using a Leica DMIRB fluorescence microscope (Leica Microsystems, Wetzlar, Germany). […]

[4] = test system: HPAEpiC cells (pulmonary alveolar epithelial cells); assay: MTT cytotoxicity assay, healthy HPAEpiC; assay type: cell-based; details: Homo sapiens, Epithelial cell, 48 h, read-out: IC50 against HPAEpiC (healthy cells)
Protocol: as §1, §2, §3, §4, §5, §6, §7, §8

MCF-7 cells = assay: Hoechst 33258 nuclear staining, MCF-7; assay type: cell-based, human; details: IC50 concentration, 48 h
Protocol: as §9, §10

SMILES: COc1ccc(/C=C/C(=O)CCc2ccc(O)cc2)cc1 [Compound 5i, (E)-5-(4-hydroxyphenyl)-1-(4-methoxyphenyl)pent-1-en-3-one]
IC50 [1]: 233 µM | SI, U87-MG cells [1]: 0.06 | SI, PC-3 cells [2]: 1.53 | SI, MCF-7 cells [3]: 2.52 | Nuclear morphology by Hoechst 33258 staining, U87-MG (U87-MG cells): apoptotic cells with fragmented nuclei | IC50 [4]: 14.9 µM | Nuclear morphology by Hoechst 33258 staining, MCF-7 (MCF-7 cells): apoptotic cells with fragmented nuclei

SMILES: O=C(/C=C/c1ccc(O)c(O)c1)CCc1ccccc1 [Compound 5f, (E)-1-(3,4-dihydroxyphenyl)-5-phenylpent-1-en-3-one]
IC50 [1]: 33.4 µM | SI, U87-MG cells [1]: 1.29 | IC50 ([2]; Homo sapiens, PC-3, 48 h): 97.5 µM | SI, PC-3 cells [2]: 0.44 | IC50 ([3]; Homo sapiens, MCF7, 48 h): 544 µM | SI, MCF-7 cells [3]: 0.08 | IC50 [4]: 43.1 µM

SMILES: O=C(/C=C/c1ccccc1)CCc1ccccc1 [Compound 5a, (E)-1,5-diphenylpent-1-en-3-one]
IC50 [1]: 107 µM | SI, U87-MG cells [1]: 0.79 | IC50 ([2]; Homo sapiens, PC-3, 48 h): 50.1 µM | SI, PC-3 cells [2]: 1.69 | SI, MCF-7 cells [3]: 7.45 | Nuclear morphology by Hoechst 33258 staining, U87-MG (U87-MG cells): apoptotic cells with fragmented nuclei | IC50 [4]: 84.8 µM | Nuclear morphology by Hoechst 33258 staining, MCF-7 (MCF-7 cells): apoptotic cells with fragmented nuclei

melting point: 95 to 96 °C
SMILES: COc1ccc(/C=C/C(=O)CCc2ccccc2)cc1 [Compound 5c, (E)-1-(4-methoxyphenyl)-5-phenylpent-1-en-3-one]
IC50 [1]: 213 µM | SI, U87-MG cells [1]: 0.42 | IC50 ([2]; Homo sapiens, PC-3, 48 h): 439 µM | SI, PC-3 cells [2]: 0.21 | IC50 ([3]; Homo sapiens, MCF7, 48 h): 50.2 µM | SI, MCF-7 cells [3]: 1.84 | IC50 [4]: 92.3 µM

melting point: 94 to 95 °C
SMILES: COc1ccc(/C=C/C(=O)CCc2ccccc2)cc1O [Compound 5e, (E)-1-(3-hydroxy-4-methoxyphenyl)-5-phenylpent-1-en-3-one]
IC50 [1]: 133 µM | SI, U87-MG cells [1]: 0.20 | IC50 ([2]; Homo sapiens, PC-3, 48 h): 95.8 µM | SI, PC-3 cells [2]: 0.28 | IC50 ([3]; Homo sapiens, MCF7, 48 h): < 30 µM | IC50 [3]: 21.8 µM | SI, MCF-7 cells [3]: 1.21 | IC50 [4]: 26.4 µM

melting point: 146 to 147 °C
SMILES: O=C(/C=C/c1ccc(O)cc1)CCc1ccc(O)cc1 [Compound 5h, (E) 1,5-bis(4-hydroxyphenyl)pent-1-en-3-one]
IC50 [1]: 358 µM | SI, U87-MG cells [1]: 0.14 | IC50 ([2]; Homo sapiens, PC-3, 48 h): 437 µM | SI, PC-3 cells [2]: 0.12 | IC50 ([3]; Homo sapiens, MCF7, 48 h): < 30 µM | IC50 [3]: 26.7 µM | SI, MCF-7 cells [3]: 1.92 | IC50 [4]: 51.4 µM

melting point: 130 to 131 °C
SMILES: COc1ccc(/C=C/C(=O)CCc2ccc(O)cc2)cc1O [Compound 5k, (E)-1-(3-hydroxy-4-methoxyphenyl)-5-(4-hydroxyphenyl)pent-1-en-3-one]
IC50 [1]: 52.6 µM | SI, U87-MG cells [1]: 1.32 | IC50 ([2]; Homo sapiens, PC-3, 48 h): 45.1 µM | SI, PC-3 cells [2]: 1.54 | IC50 ([3]; Homo sapiens, MCF7, 48 h): 203 µM | SI, MCF-7 cells [3]: 0.34 | IC50 [4]: 69.3 µM

SMILES: COc1cccc2c1C(=O)c1c(O)c3c(c(O)c1C2=O)C[C@@](O)(C(=O)CO)C[C@@H]3O[C@H]1C[C@H](N)[C@H](O)[C@H](C)O1 [DOX control (+), doxorubicin, reference compound]
IC50 [1]: 8.95 µM | SI, U87-MG cells [1]: 7.20 | IC50 ([2]; Homo sapiens, PC-3, 48 h): 6.76 µM | SI, PC-3 cells [2]: 9.53 | IC50 ([3]; Homo sapiens, MCF7, 48 h): 14.7 µM | SI, MCF-7 cells [3]: 4.38 | IC50 [4]: 64.4 µM

melting point: 96 to 97 °C
SMILES: O=C(/C=C/c1ccccc1)CCc1ccc(O)cc1 [Compound 5g, (E)-5-(4-hydroxyphenyl)-1-phenylpent-1-en-3-one]
IC50 [1]: 128 µM | SI, U87-MG cells [1]: 0.17 | IC50 ([2]; Homo sapiens, PC-3, 48 h): 291 µM | SI, PC-3 cells [2]: 0.07 | IC50 ([3]; Homo sapiens, MCF7, 48 h): < 30 µM | IC50 [3]: 16.2 µM | SI, MCF-7 cells [3]: 1.31 | IC50 [4]: 21.1 µM

melting point: 136 to 137 °C
SMILES: O=C(/C=C/c1ccc(O)cc1)CCc1ccccc1 [Compound 5b, (E)-1-(4-hydroxyphenyl)-5-phenylpent-1-en-3-one]
IC50 [1]: 70.9 µM | SI, U87-MG cells [1]: 0.08 | IC50 ([2]; Homo sapiens, PC-3, 48 h): < 30 µM | IC50 [2]: 22 µM | SI, PC-3 cells [2]: 0.25 | SI, MCF-7 cells [3]: 0.58 | IC50 [4]: 5.51 µM

melting point: 202 to 203 °C
SMILES: O=C(/C=C/c1ccc(O)c(O)c1)CCc1ccc(O)cc1 [Compound 5l, (E)-1-(3,4-dihydroxyphenyl)-5-(4-hydroxyphenyl)pent-1-en-3-one]
IC50 [1]: 287 µM | SI, U87-MG cells [1]: 1.38 | IC50 ([2]; Homo sapiens, PC-3, 48 h): 185 µM | SI, PC-3 cells [2]: 2.14 | IC50 ([3]; Homo sapiens, MCF7, 48 h): 317 µM | SI, MCF-7 cells [3]: 1.25 | IC50 [4]: 396 µM

melting point: 131 to 132 °C
SMILES: COc1cc(/C=C/C(=O)CCc2ccc(O)cc2)ccc1O [Compound 5j, (E)-1-(4-hydroxy-3-methoxyphenyl)-5-(4-hydroxyphenyl)pent-1-en-3-one]
IC50 [1]: 75.7 µM | SI, U87-MG cells [1]: 1.23 | IC50 ([2]; Homo sapiens, PC-3, 48 h): 32.2 µM | SI, PC-3 cells [2]: 2.90 | IC50 ([3]; Homo sapiens, MCF7, 48 h): 35 µM | SI, MCF-7 cells [3]: 2.67 | IC50 [4]: 93.4 µM

melting point: 89 to 90 °C
SMILES: COc1cc(/C=C/C(=O)CCc2ccccc2)ccc1O [Compound 5d, (E)-1-(4-hydroxy-3-methoxyphenyl)-5-phenylpent-1-en-3-one]
IC50 [1]: 31.9 µM | SI, U87-MG cells [1]: 0.45 | IC50 ([2]; Homo sapiens, PC-3, 48 h): < 30 µM | IC50 [2]: 20.9 µM | SI, PC-3 cells [2]: 0.69 | IC50 ([3]; Homo sapiens, MCF7, 48 h): < 30 µM | IC50 [3]: 27.8 µM | SI, MCF-7 cells [3]: 0.52 | IC50 [4]: 14.4 µM
